{"source": "paper PMC9598926", "about": "“Design and Synthesis of (Z)-5-(Substituted benzylidene)-3-cyclohexyl-2-thioxothiazolidin-4-one Analogues as Anti-Tyrosinase and Antioxidant Compounds: In Vitro and In Silico Insights” (Antioxidants, 2022)", "key": {"[1]": {"test_system": "B16F10 murine melanoma cells", "assay": "B16F10 cell viability (EZ-Cytox assay)", "type": "cell-based", "experimental": "2.8. Viabilities of B16F10 Murine Melanoma Cells Treated with Analogues 2 or 3\nThe cytotoxic effects of analogs 2 and 3 were examined using B16F10 murine melanoma cells, as previously described. Cell viabilities were determined using the EZ-Cytox cell viability assay kit (Daeil Lab Service Co. Ltd., Seoul, Korea). Briefly, B16F10 cells (density 1 × 10^4 cells/well) were added to the wells of a 96-well microplate and cultured in a humidified 5% CO2 atmosphere at 37 °C for 24 h. Cells were then exposed to analogs 2 or 3 at 0, 1, 2, 5, 10, or 20 µM and incubated in a humidified 5% CO2 atmosphere for 24, 48, or 72 h at 37 °C. At these time points, cells were exposed to 10 µL of EZ-Cytox solution and incubated for 2 h at 37 °C. Optical densities of wells were then measured at 450 nm using a microplate reader (VersaMax®, Molecular Devices, Sunnyvale, CA, USA) to assess cell viability. Experiments were conducted independently 3 times.\nSince analogs 2 and 3 had potent inhibitory effects on mushroom tyrosinase, they were subjected to B16F10 murine melanoma cytotoxicity assays. Initially, the cytotoxicities of 2 and 3 were investigated at concentrations of 0, 1, 2, 5, 10, and 20 µM using the EZ-Cytox cell viability assay (EZ-3000; DoGenBio, Seoul, Korea). Cell viability was measured after treatment for 24, 48, or 72 h (Figure 6)."}, "[2]": {"assay": "Peroxynitrite (ONOO−) scavenging activity assay (DHR 123, SIN-1)", "conditions": "SIN–1 10 µM; 5, 10, 20 µM", "experimental": "2.14. Peroxynitrite (ONOO^−) Scavenging Activity Assay\nPeroxynitrite-scavenging activities were determined as described by Kooy et al. with modification. This method monitors the fluorescence of rhodamine 123, which is formed rapidly when non-fluorescent DHR 123 (dihydrorhodamine 123) (Molecular Probes, Eugene, OR, USA) in the presence of peroxynitrite. The rhodamine buffer solution (pH 7.4) included of 50 mM sodium phosphate, 90 mM sodium chloride, 5 mM potassium chloride, and 100 µM DTPA. The final concentration of DHR 123 was 5 µM. In this assay, the buffer solution was prepared prior to use and then stood on ice. Test compounds (10 µL, final concentrations: 5, 10, and 20 µM) dissolved in DMSO and added to 10 µL SIN-1 (10 µM) and 180 µL rhodamine buffer solution in the wells of a black 96-well plate. Fluorescence intensities of oxidized DHR 123 were measured using a fluorescence plate reader (Berthold Advances GmbH & Co., Bad Wildbad, Germany) with an excitation and emission wavelengths of 485 and 535 nm, respectively. Peroxynitrite scavenging activity was calculated after subtracting background fluorescence from final fluorescence intensity. Results are expressed as means ± standard deviation (SD), and L-penicillamine was used as a positive control.\nSeveral RNS (reactive nitrogen species), including peroxynitrite (ONOO^–) and nitric oxide, are known to be involved in the induction of the melanogenesis. Therefore, we investigated the effects of analogs 1–8 on peroxynitrite scavenging activity using DHR123 (dihydrorhodamine) as a ROS indicator and SIN–1 as an RNS generator. Peroxynitrite generated by SIN–1 oxidizes DHR123 to rhodamine 123, a fluorescent compound. Thus, the effects of analogs on peroxynitrite scavenging ability were determined by measuring rhodamine 123 fluorescence."}, "[3]": {"assay": "DPPH radical scavenging activity assay", "conditions": "test sample 500 µM, DPPH 0.18 mM, 30 min in the dark", "experimental": "2.11. DPPH Radical Scavenging Activity Assay\nThe DPPH radical scavenging activities of analogs 1–8 were investigated as previously described with minor modification. L-Ascorbic acid was used as a positive control. In brief, 20 µL of analogs (5 mM) in DMSO or 5 mM L-ascorbic acid in distilled water were mixed with 180 µL of 0.2 mM DPPH in methanol in a 96-well microplate. After the microplate had been stored in the dark for 30 min, optical densities (ODs) were measured at 517 nm using a microplate reader (VersaMax®, Molecular Devices, Sunnyvale, CA, USA). DPPH radical scavenging activities were determined using the following formula:DPPH radical scavenging activity (%) = 100 × (Ac − As)/Ac(1) where Ac indicates the optical density of the non-treated control and As indicates the optical density of test sample. Experiments were conducted independently 3 times.\nThere is a possibility that compounds with antioxidant properties inhibit the oxidations of tyrosinase substrates, such as L-tyrosine and L-dopa, without interacting with the tyrosinase. Melanin production requires many oxidative processes, including the conversion of L-tyrosine to dopaquinone via L-dopa. Therefore, compounds with antioxidant activity have the potential to inhibit melanogenesis. DPPH (2,2-diphenyl-1-picrylhydrazyl) contains a free radical, and DPPH assays are commonly used to assess antioxidant activity. In this experiment, L-ascorbic acid (an antioxidant) was used as a positive control. The assay was conducted at a test sample and L-ascorbic acid concentration of 500 µM and a DPPH concentration of 0.18 mM. After standing test sample/DPPH mixtures for 30 min in the dark, optical densities were measured to evaluate radical scavenging activities."}, "mushroom tyrosinase [4]": {"molecular_target": "mushroom tyrosinase", "assay": "Mushroom tyrosinase inhibition in the presence of L-dopa", "type": "biochemical", "conditions": "L-dopa as substrate"}, "mushroom tyrosinase [5]": {"test_system": "mushroom tyrosinase", "assay": "Mushroom tyrosinase activity assay (L-tyrosine as substrate)", "type": "biochemical", "conditions": "for tyrosinase inhibition relative to kojic acid: fold more than kojic acid; for IC50: mushroom tyrosinase, means ± SEMs of triplicate determinations; for enhancement of tyrosinase inhibitory activity relative to analog 1: versus analog 1", "experimental": "2.2. […] In brief, 20 µL of an aqueous mushroom tyrosinase solution (1000 units/mL) and 170 µL of a substrate mixture containing 345 µM of L-tyrosine and 17.2 mM of sodium phosphate buffer (pH 6.5) were added to wells of a 96-well microplate. […] Amounts of dopachrome produced were assessed by measuring optical densities at 475 nm using a microplate reader (VersaMax®, Molecular Devices, Sunnyvale, CA, USA). […] Experiments were independently conducted three times."}}, "data": [{"compound": "O=C1/C(=C/c2ccc(O)cc2O)SC(=S)N1C1CCCCC1", "note": "[Analog 3, (Z)-3-Cyclohexyl-5-(2,4-dihydroxybenzylidene)-2-thioxothiazolidin-4-one]", "values": [{"measurement": "cytotoxicity in B16F10 cells, any concentration or time", "setting": "[1]; 1, 2, 5, 10, 20 µM, 24, 48, 72 h", "result": "not cytotoxic"}, {"measurement": "peroxynitrite scavenging compared with penicillamine", "setting": "[2]", "result": "much more potently than penicillamine"}, {"measurement": "DPPH radical scavenging activity", "setting": "[3]", "result": 73, "unit": "%"}, {"measurement": "IC50", "setting": "mushroom tyrosinase [4]", "result": "10.6 ± 2.92", "unit": "µM"}, {"measurement": "tyrosinase inhibition relative to kojic acid", "setting": "mushroom tyrosinase [5]", "result": 25, "unit": "fold"}, {"measurement": "IC50", "setting": "mushroom tyrosinase [5]", "result": "1.03 ± 0.14", "unit": "µM"}, {"measurement": "enhancement of tyrosinase inhibitory activity relative to analog 1", "setting": "mushroom tyrosinase [5]", "result": 63, "unit": "fold"}]}, {"compound": "O=C1/C(=C/c2ccc(O)c(O)c2)SC(=S)N1C1CCCCC1", "note": "[Analog 2, (Z)-3-Cyclohexyl-5-(3,4-dihydroxybenzylidene)-2-thioxothiazolidin-4-one]", "values": [{"measurement": "cytotoxicity in B16F10 cells, 24 h", "setting": "[1]; 1, 2, 5, 10, 20 µM, 24 h", "result": "cytotoxic at 20 µM"}, {"measurement": "cytotoxicity in B16F10 cells, 48 h and 72 h", "setting": "[1]; 1, 2, 5, 10, 20 µM, 48 h and 72 h", "result": "cytotoxic at all concentrations"}, {"measurement": "peroxynitrite scavenging compared with penicillamine", "setting": "[2]", "result": "much more potently than penicillamine"}, {"measurement": "DPPH radical scavenging activity", "setting": "[3]", "result": 92, "unit": "%"}, {"measurement": "IC50", "setting": "mushroom tyrosinase [4]", "result": "39.7 ± 3.43", "unit": "µM"}, {"measurement": "tyrosinase inhibition relative to kojic acid", "setting": "mushroom tyrosinase [5]", "result": 5, "unit": "fold"}, {"measurement": "IC50", "setting": "mushroom tyrosinase [5]", "result": "5.21 ± 0.86", "unit": "µM"}, {"measurement": "enhancement of tyrosinase inhibitory activity relative to analog 1", "setting": "mushroom tyrosinase [5]", "result": 13, "unit": "fold"}]}]}
